Laboratory results published in US9060966B2, “Use of 2,5-dihydroxybenzene derivatives for the treatment of arthritis and pain” (priority 2006, dated 2015).

Legend:
[1] = test system: intestinal inflammatory disease (IID) induced by DSS; experiment: Intestinal inflammatory disease induced by dextran sulfate sodium in mice; type: in vivo; conditions: for disease clinical score (0 to 6 scale): first two DSS cycles
Procedure: (§1) The mice were subject to two 7-day cycles of exposure to dextran sulfate sodium (DSS) (from day 1 to 7 and from day 14 to 21) in the drinking water separated by 7 days in which regular water was provided (from 7 to 14). One group was treated with vehicle (0.9% NaCl), another with Solu-Medrol (10 mg/kg/day i.m.), and the other two groups with potassium 2,5-diacetoxybenzene sulfonate (DABS), one of them with 100 mg/kg/day i.p. and the other with 125 mg/kg/day, orally (p.o.). The body weight was normalized on day 0. Data are expressed as the mean±SD of the percentage of the basal weight (day 0) of 10 mice per group.
as §1, with “(p.o.)” for “(p.o.). The body weight was normalized on day 0.”, “clinical score” for “percentage”, “disease continuously obtained from” for “basal weight (day 0) of”, “per each” for “per”
The induction of the intestinal inflammatory disease described below is a representative model for the evaluation of therapeutic strategies to treat Crohn's disease and ulcerative colitis. 7-8 week old female mice of strain C57BL/6J-664 were used. The intestinal inflammatory disease (IID) was induced by feeding the mice with 3% dextran sulfate sodium (DSS; MW 40,000) dissolved in drinking water in 2 cycles. Each cycle consisted of 7 days with 3% DSS in the drinking water separated by 7 days with regular water. A daily clinical evaluation of the animals was performed in which the body weight, the consistency of the faeces and the presence of blood in the faeces were determined. Thus, the validated score of the clinical activity of the disease was evaluated with a 0 to 6 scale, considering the following parameters: consistency of the faeces, presence or absence of fecal blood and loss of weight.
At the end of the first cycle of exposure to DSS, the mice were divided into the following treatment groups: a first group was administered intraperitoneal (i.p) injections of vehicle (0.9% NaCl). Another group received intramuscular injections of Solu-Medrol, a standard IID treatment, at a dose of 10 mg/kg/day. A third group was administered i.p. injections of potassium 2,5-diacetroxybenzene sulfonate (DABS, 100 mg/kg/day). The last group was treated orally with 125 mg/kg day of DABS.

[2] = molecular target: fibroblast growth factor-1 (FGF-1) (Homo sapiens, UniProt P05230); experiment: Inhibition of fibroblast mitogenesis induced by FGF-1 in Balb/c 3T3 fibroblasts; type: cell-based; design: host or cells: added to Balb/c 3T3 fibroblasts (mouse); conditions: quiescent Balb/c 3T3 cultures; potassium salts, except 2-acetoxy-5-hydroxybenzene sulfonate as calcium salt
Sequence of fibroblast growth factor-1 (FGF-1) (P05230 whole entry, species assumed): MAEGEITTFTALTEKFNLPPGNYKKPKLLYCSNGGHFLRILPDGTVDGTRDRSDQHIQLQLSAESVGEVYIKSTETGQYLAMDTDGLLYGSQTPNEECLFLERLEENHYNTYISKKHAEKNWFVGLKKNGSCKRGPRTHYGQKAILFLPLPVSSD
Procedure: The evaluated compounds were used in the form of potassium salt, except in the first case in which calcium salt was used. The experiments were carried out as described in Fernandez-Tornero C et al. J Biol Chem, 2003.

[3] = test system: human retinal endothelial cells (HREC); experiment: Proliferation of human retinal endothelial cells (HREC, crystal violet); type: cell-based; conditions: calcium 2,5-dihydroxybenzenesulfonate, 100 μM, 72 h, for comparison
Procedure: (§2) 2A-5HBS was administered or not administered (control) after seeding the HREC in 24-well plates (7.5×10^3 per well) until they were fixed after 72 hours. The data are expressed as the mean±SEM of the percentage of the absorbance at 595 nm obtained in the control cultures, which is proportional to the number of cells stained with crystal violet. The data were obtained from 6 cultures for each treatment in two separate experiments. The white bar represents the value of the control cells, whereas the gray bars show the value in the presence of 2A-5HBS (500 and 1000 μM). * indicates p<0.05, *** p<0.001 with respect to the control by means of a single-factor analysis of variance (ANOVA) followed by a Student-Newman-Keuls post-analysis.
as §2, with “5A-2HBS” for “2A-5HBS”, “striped” for “gray”, “***” for “*”, “indicates” for “indicates p<0.05, ***”
2,5-DHCME was administered or not administered (control) after seeding the HREC in 24-well plates (7.5×10^3 per well) until they were fixed after 72 hours. The data are expressed as the mean±SEM of the percentage of the absorbance at 595 nm obtained in the control cultures, which is proportional to the number of cells stained with crystal violet. The data were obtained from 6 cultures for each treatment in two separate experiments.
Primary cultures of human retinal endothelial cells (HREC) were used. Cells were obtained from Cell Systems (Virginia, USA) and subcultured with CSC complete medium (Cell Systems). Cells at 2 to 5 passages were seeded in 24-well plates at 7,500 cells/well density and, once attached, the cells were treated o not treated (controls) with 2A-5HBS (500 and 1000 μM) or 5A-2HBS (500 and 1000 μM) and they were allowed to proliferate for 72 hours, with daily medium changes. After that, the proliferation of HREC was evaluated by staining the fixed cells with crystal violet. The number of cells is proportional to the amount of retained dye, which was spectrophotometrically determined by measuring absorbance at 595 nm after removing the dye from the cells. Data are expressed as the percentage of absorbance at 595 nm obtained in control conditions. Data were obtained from two different experiments performed in triplicate.
Primary cultures of human retinal endothelial cells (HREC) were used. Cells were obtained from Cell Systems (Virginia, USA) and subcultured with CSC complete medium (Cell Systems). […] After that, the proliferation of HREC was evaluated by staining the fixed cells with crystal violet. The number of cells is proportional to the amount of retained dye, which was spectrophotometrically determined by measuring absorbance at 595 nm after removing the dye from the cells. Data are expressed as the percentage of absorbance at 595 nm obtained in control conditions. […]

SMILES | disease clinical score (0 to 6 scale) ([1]; 100 mg/kg/day i.p.) | disease clinical score (0 to 6 scale) ([1]; 125 mg/kg/day oral) | loss of weight produced by the two cycles of exposure to DSS ([1]; DABS 100 mg/kg/day i.p. or 125 mg/kg/day p.o., routes not distinguished) | efficacy compared with the standard treatment Solu-Medrol ([1]; body weight and clinical score, Solu-Medrol 10 mg/kg/day i.m.) | FGF-1 induced mitogenesis [2] | HREC proliferation [3]
CC(=O)Oc1ccc(OC(C)=O)c(S(=O)(=O)[O-])c1.[K+] [DABS, potassium 2,5-diacetoxybenzene sulfonate] | reduced | reduced | reduced | not lower (in some points it is higher) | Inhibition | –
O=S(=O)(O)c1cc(O)ccc1O [DHBS, 2,5-dihydroxybenzenesulfonic acid] | – | – | – | – | – | failed to significantly affect
